Measured values: patent publication US20250127772A1, “SPECIFIC TETRADENTATE COPPER CHELATORS FOR THE TREATMENT OF WILSON'S DISEASE” (GUANGDONG UNIVERSITY OF TECHNOLOGY, priority 2023, published 2025)
Where “and” joins values, the source holds several entries; their conditions need not be identical. Equal entries are not always repeated.

Columns and labels:
[1] = test system: homozygous toxic-milk mouse model (TX model); format: in vivo; settings: TX mice
From the text: The selected drug-candidate TDMQ20 has been evaluated on the homozygous toxic-milk mouse model (TX model), a regular murine model of Wilson disease, suitable for evaluation of drug-candidates (for a review, see E. Reed et al., J. Neurochem., 146, 356-373, 2018). TX mice are bearing a naturally occurring point mutation on ATP7B resulting in a methionine changed for a valine, that causes the loss of copper transportation by this protein. C57BL/6 mice have no mutation on ATP7B and were used as control mice in the evaluation of TDMQ20. TX mice were provided by Sun Yat-Sen University (Guangzhou) and C57BL/6 mice by the Guangdong experimental animal center (Guangzhou) and all experiments were performed according to protocols approved by the Welfare Laboratory Animals Committee of the Guangdong University of Technology (approval n° GDUTXS2022083 dated on 3 Aug. 2022), in the framework of the 3 Rs principle.
[…] TX mice (WD) and 8-week-old C57BL/6 mice (Control) were used. TX mice (as WD, TDMQ-L, TDMQ-M, TDMQ-H groups, respectively) received the drug TDMQ20 by intragastric gavage twice a day for 14 consecutive days (at 0, 12.5, 25.0, 50.0 mg/kg in NaCl 0.9%). On the same schedule, C57BL/6 mice (as control group) received NaCl 0.9%. Treatment of WD mice with DPA (200 mg/kg) was used as comparison (DPA group). Six groups of 6 mice were used.
At the end of the treatment period, mice (10-week old) were placed in metabolic cages for 12 h in order to collect urine and feces. At the end of this 12 h-period, mice were anesthetized using 2.5% Avertin diluted in 0.9% NaCl at a dose of […] body weight and sacrificed. Cardiac blood was collected and left at room temperature for 30 minutes before centrifugation at 4° C. at 3000 r/min for 10 minutes to obtain serum samples. During this 30-min period, liver, kidney, brain and serum were also collected. Copper concentrations in urine and feces, serum, liver, kidney and brain were determined by inductively coupled plasma mass spectrometry (ICP-MS). Data analysis was carried out using SPSS Statistics software (version 26). Data are provided as mean values±standard error of the mean (SEM). Statistical analyses were performed using one-way ANOVA for liver, feces and urine, and by non-parametric test for serum, kidney, and brain. Differences with p>0.05 were considered as no significance (ns), * p<0.05, ** p<0.01, and *** p<0.001, n=6. Graph presentations were drawn with Prism GraphPad 8.0.2.

[2] = oral administration in adults, WD treatment; cited from earlier work
[3] = DPA 200 mg/kg/day gavage 14 days, mean of 6 mice ± SEM

Compound | copper concentration in serum versus untreated WD mice ([1]; DPA 200 mg/kg/day) | Cu content Brain [1, 3] [mg/kg] | Cu content Feces [1, 3] [mg/kg] | Cu content Kidney [1, 3] [mg/kg] | Cu content Liver [1, 3] | Cu content Serum [1, 3] [mg/L] | Cu content Urine [1, 3] [mg/L] | adverse effects observed with time [2]
CC(C)(S)[C@@H](N)C(=O)O [DPA, D-penicillamine, reference compound] | not significantly higher | 3.7 ± 0.3 | 96 ± 7 | 5.4 ± 0.3 | 265 mg/kg and 265 ± 9 mg/kg | 0.39 ± 0.03 | 2.8 ± 0.2 | nephrotoxicity, aplasia, retinitis and neurological deterioration
NCCNCCNCCN [trientine, triethylene-tetramine] |  |  |  |  |  |  |  | bone marrow depression, anemia, skin rash and hemorrhagic gastritis
